The target in test [1] is T1, Corticotropin-releasing factor receptor 2/Corticotropin-releasing factor-binding protein (Homo sapiens, UniProt P24387+Q13324).
T1 sequence (Q13324 whole entry): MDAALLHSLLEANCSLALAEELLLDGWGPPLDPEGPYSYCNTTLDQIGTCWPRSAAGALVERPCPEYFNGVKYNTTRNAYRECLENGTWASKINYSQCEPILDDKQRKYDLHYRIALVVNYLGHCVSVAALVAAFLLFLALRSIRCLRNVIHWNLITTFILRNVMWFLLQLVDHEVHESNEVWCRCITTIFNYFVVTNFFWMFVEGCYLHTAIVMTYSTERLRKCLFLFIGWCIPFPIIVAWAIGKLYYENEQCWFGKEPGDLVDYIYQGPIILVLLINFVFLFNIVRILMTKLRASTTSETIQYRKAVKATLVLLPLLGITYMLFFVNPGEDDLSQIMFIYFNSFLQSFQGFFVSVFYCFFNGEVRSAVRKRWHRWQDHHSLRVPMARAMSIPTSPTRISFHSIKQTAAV
T1 sequence (P24387 whole entry): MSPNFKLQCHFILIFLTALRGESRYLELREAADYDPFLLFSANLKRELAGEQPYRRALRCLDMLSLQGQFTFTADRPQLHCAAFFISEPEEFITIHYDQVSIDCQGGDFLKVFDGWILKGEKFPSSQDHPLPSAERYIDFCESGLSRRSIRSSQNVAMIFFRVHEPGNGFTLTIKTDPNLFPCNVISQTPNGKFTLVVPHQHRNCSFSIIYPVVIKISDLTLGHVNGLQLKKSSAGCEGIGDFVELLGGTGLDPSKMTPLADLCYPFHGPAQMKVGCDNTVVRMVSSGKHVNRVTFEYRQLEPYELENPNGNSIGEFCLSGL
Kind of test: Dose Response confirmation of uHTS hits for small molecule antagonists of the CRF-binding protein and CRF-R2 receptor complex. Type of test: functional. To be noted: read-out: IC50_Mean.

Test [2] concerns the target T1, Corticotropin-releasing factor receptor 2/Corticotropin-releasing factor-binding protein. Kind of test: activators of CRF receptor 2 with binding protein – uHTS hits, confirmation (AID 602473). Type of test: functional. As to conditions: read-out: EC50_Mean.
A short description of test [3]: P. falciparum Dd2 growth inhibitors, dose response, SYBR Green, cherry-picked samples (AID 1159567). It counts as functional, cell-based.
The subject of test [4] is BJ. The test can be described thus: cells. To be noted: Homo sapiens, BJ. Type of test: functional, cell-based, Homo sapiens.
Test [5] concerns BJ. The test can be described thus: cytotoxicity toward BJ-TERT fibroblasts, dose response, cell-based, RAS-independent, luminescence (AID 1933). It counts as functional, Homo sapiens. As to conditions: Homo sapiens, BJ.
A short description of test [6]: cytotoxicity toward DRD oncogenic fibroblasts, dose response, cell-based, non-viral oncogenic, luminescence (AID 1934). As to conditions: Homo sapiens. Type of test: functional.
Test [7] concerns BJ. The test can be described thus: cytotoxicity toward BJ-TERT-LT-ST fibroblasts, dose response, cell-based, RAS-independent, luminescence (AID 1935).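 Further: BJ fibroblasts immortalized with TERT plus LT and ST oncogenes.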 To be noted: Homo sapiens, BJ. Type of test: functional, Homo sapiens.
Test [8] is described as follows: control 3'UTR Renilla luciferase suppression, dose response, counter-screen for Shn3 inhibitor project, cell-based, Clone20-Shn3RL, cherry-picked (AID 624133). It counts as functional.
A short description of test [9]: HepG2 cell cytotoxicity, dose response, cytotoxicity control for Shn3 inhibitor project, CellTiter-Glo, cherry-picked (AID 624134). Type of test: functional, cell-based. For orientation: ATP-based viability assays read luminescence as a measure of living cells.
The nature of test [10]: Shn3 3'UTR reporter inhibitors, dose response, cell-based, Clone20 osteoblasts, firefly luciferase, cherry-picked (AID 624132).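 Further: firefly luciferase luminescence from reporter carrying the Shn3 3'UTR in osteoblasts.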 It counts as functional.
A further test deals with INS1. The test can be described thus: beta cell apoptosis inhibitors, cytokine rescue, dose response, luminescence, retest (AID 449756).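 Further: cell death triggered by IL-1 beta plus TNF-alpha plus IFN-gamma mixture; protective hits raise ATP signal compared with cytokine alone wells.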 To be noted: Rattus norvegicus. Type of test: functional, cell-based.
In another test the test system is H9c2. The test can be described thus: cells. It counts as functional, cell-based. To be noted: Rattus norvegicus, H9c2, Myocardium.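 Further: confirmatory concentration-response retest of ultra-high-throughput screening hits for modulation of myocardial damage; cell death induced by hydrogen peroxide oxidative stress; compound pretreatment for 60 min then peroxide exposure for 2 h; potency is for protecting the cells against peroxide damage rather than for killing them.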

Active and inactive are the calls of the source.

Take `Cc1ccc(C(=O)N/C(=C\c2cn(C)c3ccccc23)C(=O)NCCCN2CCOCC2)cc1`: in test [1], the IC50 was > 47.1 µM (inactive). The EC50 in [2] is > 53 µM (inactive).

With `CN(C)c1ncc(S(=O)(=O)c2ccc(Cl)cc2)c(-c2ccc(Cl)cc2Cl)n1`, the IC50 in test [1] is > 47.1 µM (inactive). Further, in test [2], the EC50 was > 53 µM (inactive).

As for `COc1ccc2c3c([nH]c2c1)[C@@H](CO)N(Cc1cc(F)ccc1F)CC31CN(C(=O)CN(C)C)C1`, the AC50 (as a rule, the midpoint of the concentration-response curve, whichever way the signal moves) in test [3] is 3.87 µM (active).

Take `Cn1c(=O)n(C)c2cc(NC(=O)CCl)ccc21`: the EC50 is 20.7 µM (inconclusive) in the test on BJ [4], 18.8 µM (active) in the test on BJ [5], 28 µM (active) in test [6] and > 75 µM (inconclusive) in the test with BJ [7].

For `CC[C@@H]1CCCCc2ccccc2[C@H](C(=O)C[C@H](O)CC(C)=O)OC1=O`, in [1], the IC50 was > 47.1 µM (inactive). Besides, the EC50 in [2] was > 53 µM (inactive).

`C[C@H]1CN([C@@H](C)CO)S(=O)(=O)c2ccc(C#Cc3ccccc3)cc2O[C@@H]1CN(C)S(=O)(=O)c1cn(C)cn1`: the AC50 in [3] was 3.95 µM (active).

On to `CC(C)c1ccccc1-n1c(SCC(=O)N2CCc3ccccc3C2)nc2ccccc2c1=O`, for which the AC50 is 3.83 µM (active) in test [8], 55.4 µM (active) in [9], 2.99 µM (active) in [10] and 2.44 µM (active) in the test on INS1.

With `Cc1nnc(SCC(=O)N(C)Cc2ccccc2)nc1O`, the IC50 in test [1] was > 47.1 µM (inactive). For the same compound, the EC50 in test [2] was > 53 µM (inactive).

In the case of `O=C(Cc1cccs1)Nc1nc2c(ccc3ccccc32)s1`, in [1], the IC50 was > 47.1 µM (inactive). For the same compound, the EC50 in test [2] is > 53 µM (inactive).

Turning to `C[C@H]1CN([C@@H](C)CO)C(=O)Cc2cc(NS(C)(=O)=O)ccc2O[C@@H]1CN(C)Cc1ccc(Cl)c(Cl)c1`, the IC50 in [1] is > 47.1 µM (inactive). The EC50 in [2] is 40.7 µM (active).

For the compound `Cc1ccc(C(=O)OCC(=O)c2cc(C)n(CC3CCCO3)c2C)cc1` (stereo not drawn), in test [1], the IC50 was > 47.1 µM (inactive). The EC50 in test [2] is > 53 µM (inactive).

Consider `CCC(=O)c1ccc(OCC(O)Cn2c(C)nc3ccccc32)cc1` (stereo not drawn), for which the AC50 in [8] is 14.1 µM (active); in test [9] it was 49.9 µM (active); in [10], 2.28 µM (active).

Regarding `O=C(O)C[C@H](O)C[C@H](O)/C=C/c1c(C2CC2)nc2ccccc2c1-c1ccc(F)cc1` [PITAVASTATIN CALCIUM], the EC50 in the test on BJ [4] is 4.21 µM (active); with BJ [5], 0.299 µM (active); in test [6], 0.353 µM (active); in the test on BJ [7], 0.559 µM (active).

Regarding `CCOc1ccc(S(=O)(=O)N2CCN(C(=O)c3ccncc3)CC2)cc1`, in [1], the IC50 was > 47.1 µM (inactive). In addition, the EC50 in test [2] is > 53 µM (inactive).

For the compound `CCN1C(=O)/C(=C\C=C\c2ccccc2[N+](=O)[O-])SC1=S`, the IC50 in test [1] is > 47.1 µM (inactive). Further, in [2], the EC50 was > 53 µM (inactive).

As to `COc1ccc(-c2ccc3c(c2)S(=O)(=O)c2cccc(C(=O)N4CCN(c5ccccn5)CC4)c2C3=O)cc1OC`, the IC50 in the test with H9c2 is 15 µM (active).

Take `C[C@@H](O)C#Cc1ccc([C@H]2[C@H]3CN(S(=O)(=O)c4ccccc4)CCCCN3[C@H]2CO)cc1`: in test [3], the AC50 was 7.37 µM (active).

As for `COCCN(C(=O)COC(=O)C1CCC(C(C)(C)C)CC1)c1c(N)n(Cc2ccccc2)c(=O)[nH]c1=O` (stereo not drawn), the AC50 in [8] is 4.83 µM (active); in test [9], 43.1 µM (active); in test [10], 5.15 µM (active); in the test on INS1, 2.34 µM (active).

As for `CCCCn1c(N)c(N(CCC(C)C)C(=O)Cc2ccc(S(=O)(=O)N3CCOCC3)s2)c(=O)[nH]c1=O`, the IC50 in [1] is > 47.1 µM (inactive). In test [2], the EC50 was > 53 µM (inactive).

These data come from ChEMBL document CHEMBL1201862, “PubChem BioAssay data set” (2004).
